# Like-named read-outs stand apart in the source and are kept apart here.
# Tests used:
# [1] = test system: Bacteroid; experiment: comparative MIC experiment, Bacteroid; type: cell-based
# [2] = test system: candida and cryptococcus; experiment: in vitro antifungal test, candida and cryptococcus; type: cell-based
# [3] = test system: Staphylococcus epidermidis; experiment: comparative MIC experiment, Staphylococcus epidermidis; type: cell-based
# [4] = test system: Candida albicans; experiment: comparative MIC experiment, Candida albicans; type: cell-based
# [5] = test system: dermatophyte; experiment: in vitro antifungal test, dermatophyte; type: cell-based
# [6] = test system: Pseudallescheria boydii; experiment: in vitro antifungal test, Pseudallescheria boydii; type: cell-based
# [7] = test system: Serratia marcescens; experiment: comparative MIC experiment, Serratia marcescens; type: cell-based
# [8] = test system: aspergillus fumigatus, cryptococcus and red trichophyton; experiment: in vitro antifungal test, aspergillus fumigatus, cryptococcus and red trichophyton; type: cell-based
# [9] = test system: mycoplasma pneumoniae; experiment: bacteriostatic effect on mycoplasma pneumoniae; type: cell-based
# [10] = test system: HIV-1 IIIB; experiment: HIV-1 P24 antigen inhibition in chronically infected H9 cells
# Method: HIV-1 P24 antigen titer was measured according to the operation procedures stated in HIV-1 P24 antigen kit.
# 100 μl (2×10^5 cells/ml) of H9 cells suspension was seeded into 96-well cell culture plate. Then, 100 μl liquor of 2× diluted medicament or 4-5× diluted positive AZT (8 concentrations) was added. Each dilution was repeated in three wells. The cell control group was established. The cells were incubated in the incubator (37° C., 5% CO2, saturated humidity) and the cytopathy was observed everyday. Four days (96 hours) after administration, the supernatants were sucked out and stored at −20° C. to measure HIV-1-P24 antigen titer. The inhibition effect of the medicament was determined. The cells were dyed with MTT to measure the cytotoxicity.
# 2.2.2 Reed & Muench Method for Calculating CC50 and EC50 of Medicament in Cell Culture
# Calculation Method of Selection Index (SI) of HIV-1 P24 Antigen in Cell Culture SI=CC50/EC50 3.
# [11] = test system: AZT-sensitive strain HIV-1 018a; experiment: HIV-1 P24 antigen inhibition in PBMC, AZT-sensitive strain
# [12] = test system: AZT-resistant strain HIV-1 018c; conditions: PBMC, AZT-resistant HIV-1 018c
# [13] = test system: human T lymphocytes MT-4; experiment: cytotoxicity by MTT in MT-4 culture; conditions: MT-4 culture with HIV-1 IIIB, 96 hours
# [14] = solubility; type: physicochemical
# [15] = test system: human T lymphocytes H9 chronically infected with HIV-1 IIIB; experiment: cytotoxicity by MTT in H9 cells chronically infected with HIV-1 IIIB; conditions: H9 cell chronically infected with HIV-1 IIIB, 96 hours
# [16] = test system: HIV-1 IIIB; experiment: HIV-1 P24 antigen inhibition in MT-4 culture
# Method: MT-4 cell suspension was counted, then 100 μl of suspension (2×10^5 cells/ml) was seeded into 96-well cell culture plate, 50 μl liquor of 2× diluted medicament or 4-5× diluted positive medicament AZT (8 concentrations) was added, respectively, and 50 μl virus suspension with proper titer was add concurrently. Each dilution was repeated in 3 wells and cell control group and virus control group were established. They were incubated at 37° C., 5% CO2 saturated humidity incubator and the cytopathy was observed everyday. On the fourth day after administration (96 hours), the supernatants were sucked out and stored at −20° C. for measuring HIV-1-P24 antigen titer. Accordingly, the inhibition effect of medicament could be calculated, and the cells were dyed with MTT to measure the cytotoxicity.
# The medicated cell supernatants infected with MT-4 were diluted after being thawed. HIV-1 P24 titer was measured according to the operation procedure described in HIV-1 P24 antigen kit.
# [formula] 2.2.2 Reed & Muench Method for Calculating CC50 and EC50 of Medicament in Cell Culture
# [formula] 2.2.3. Calculation Method of Selection Index (SI) of HIV-1 P24 Antigen in Cell Culture SI=CC50/EC50 3.
# [17] = test system: human peripheral blood mononuclear cell (PBMC); experiment: cytotoxicity by MTT in HIV-infected PBMC culture; conditions: 96 hours
# Method: (§1) 10 μl MTT dye (5 mg/ml) was added to each well, and then incubated at 37° C., 5% CO2 saturated humidity incubator for 4 hours. 100 μl 50% DMF-17% Triton X-100 destainer was added to each well and the mixtures were kept at 37° C. overnight. Then OD570nm values were measured at 570 nm with a luminometer to calculate the median cytotoxicity concentration of medicament (CC50).
# (§2) The fresh normal human venous blood was taken and PBMC was separated using FiColl separation solution. The 1.5×10^5 cells/ml suspension prepared with the culture fluid containing PHA was seeded into the culture bottle and incubated in the incubator (37° C., 5% CO2) for 72 hours. The cells were collected with cell scrapers then were infected with the 10^−2 viral liquid of AZT-sensitive (018a) or AZT-resistant (018c) viral strain. After absorption for 2 hours, the non-absorbed viruses were washed with serum-free 1640 culture medium. The infected cells were prepared into 1×10^6 cells/ml with the culture fluid, and then were seeded into the 96-well culture board in 100 μl/well. At the same time, 100 μl liquor of 2× diluted AKJ-2 or 5× diluted positive control medicament AZT with different concentrations was added. The cell control group and virus control group were established. Four days (96 hours) after incubating under 37° C., 5% CO2, the supernatants were sucked out and stored at −20° C. to measure HIV-1-P24 antigen titer and calculate the inhibition effect of the medicament. The cells were dyed with MTT to measure the cytotoxicity.
# [18] = test system: AZT-resistant strain HIV-1 018c; experiment: microbe, parasite or virus in culture; conditions: Human immunodeficiency virus 1, PBMC, 96 h, read-out: Median effective concentration (EC50), HIV-1 P24 antigen
# [19] = test system: AZT-sensitive strain HIV-1 018a
# [20] = cytotoxicity by MTT in HIV-infected PBMC culture; conditions: human, Median cytotoxicity concentration (CC50)
# Method: as §1, §2
# [21] = PBMC infected with AZT-resistant HIV-1 018c
# [22] = PBMC infected with AZT-sensitive HIV-1 018a
smiles,measurement,setting,value
"CC(C)=CCC(OC(=O)C=C(C)C)C1=CC(=O)c2c(O)ccc(O)c2C1=O (stereo not drawn) [β,β-dimethylacrylshikonin]",MIC,[1],0.391 µg/mL
same,MIC,[2],2.08 to 33.3 µg/mL
same,MIC90,[2],33.3 µg/mL
same,MIC,[3],0.391 µg/mL
same,MIC,[4],3.9062 µg/mL
same,MIC,[5],4.16 to 8.32 µg/mL
same,MIC90,[5],4.16 µg/mL
same,MIC,[6],4.16-8.32 μg/mi
same,MIC,[7],0.781 µg/mL
same,MIC,[8],3.0625 to 250 µg/mL
same,MIC,[9],2 µg/mL
CC(=O)O[C@H](CC=C(C)C)C1=CC(=O)c2c(O)ccc(O)c2C1=O [acetylshikonin],"Median effective concentration (EC50), HIV-1 P24 antigen","[10]; H9 cell chronically infected with HIV-1 IIIB, 96 hours",>0.25 ± 0 µg/mL
same,inhibition effect on HIV-1 IIIB chronically-infected H9 cells,[10]; two lots of tests,no inhibition effect
same,Selection index (CC50/EC50),"[11]; PBMC, AZT-sensitive HIV-1 018a",6.50 ± 0.08
same,"Median effective concentration (EC50), HIV-1 P24 antigen","[11]; PBMC, AZT-sensitive HIV-1 018a, 96 hours",1.18 ± 0.03 µg/mL
same,"Median effective concentration (EC50), HIV-1 P24 antigen",[12]; 96 hours,>1.25 ± 0 µg/mL
same,Median cytotoxicity concentration (CC50),[13],0.49 ± 0.06 µg/mL
same,solubility in DMSO,[14]; DMSO,soluble
same,solubility in water,[14]; water,insoluble
same,Median cytotoxicity concentration (CC50),[15],1.77 ± 0.13 µg/mL
same,Selection index (CC50/EC50),"[16]; MT-4, HIV-1 IIIB",2.45 ± 0.51
same,"Median effective concentration (EC50), HIV-1 P24 antigen","[16]; MT-4, HIV-1 IIIB, 96 hours",0.20 ± 0.03 µg/mL
same,Median cytotoxicity concentration (CC50),[17]; [21],5.83 ± 0.38 µg/mL
same,Median cytotoxicity concentration (CC50),[17]; [22],7.69 ± 0.19 µg/mL
"CC[C@H]1OC(=O)[C@H](C)[C@@H](O[C@H]2C[C@@](C)(OC)[C@@H](O)[C@H](C)O2)[C@H](C)[C@@H](O[C@@H]2O[C@H](C)C[C@H](N(C)C)[C@H]2O)[C@](C)(O)C[C@@H](C)C(=O)[C@H](C)[C@@H](O)[C@]1(C)O [erythrocin, reference compound]",concentration of equivalent inhibitory effect,[9]; comparator,0.1925 µg/mL
"Cc1cn([C@H]2C[C@H](N=[N+]=[N-])[C@@H](CO)O2)c(=O)[nH]c1=O [AZT, Zidovudine, reference compound]",Selection index (CC50/EC50),[10]; H9 cell chronically infected with HIV-1 IIIB,83.65 ± 37.96
same,EC50,"[10]; Human immunodeficiency virus 1, IIIB, H9, 96 h, read-out: Median effective concentration (EC50), HIV-1 P24 antigen",1.08 ± 0.24 µg/mL
same,EC50,"[11]; Human immunodeficiency virus 1, PBMC, 96 h, read-out: Median effective concentration (EC50), HIV-1 P24 antigen",< 0.0064 µg/mL
same,Selection index (CC50/EC50),[12],1895.40 ± 479.53
same,EC50,[18],0.05 ± 0.01 µg/mL
same,Selection index (CC50/EC50),[19],10275.78 ± 1530.22
same,EC50,"[16]; Human immunodeficiency virus 1, IIIB, 96 h, read-out: Median effective concentration (EC50), HIV-1 P24 antigen",0.09 ± 0.003 µg/mL
same,Selection index (CC50/EC50),"[16]; MT-4, HIV-1 IIIB",1808.33 ± 723.07
same,CC50 at 96 h,[20]; [21],88 ± 15.5 µg/mL
same,CC50 at 96 h,[20]; [22],77.2 ± 20.9 µg/mL

# — patent US7897640B2 (priority 2003, dated 2011)
